Literature values as cited in patent publication US20240165107A1 (Cipla Limited, priority 2021, published 2024).
Like-named read-outs stand apart in the source and are kept apart here.

Columns and labels:
[1] = target: T1, alA- adrenergic receptors (Homo sapiens, UniProt P35348)
T1 sequence (P35348 1-466): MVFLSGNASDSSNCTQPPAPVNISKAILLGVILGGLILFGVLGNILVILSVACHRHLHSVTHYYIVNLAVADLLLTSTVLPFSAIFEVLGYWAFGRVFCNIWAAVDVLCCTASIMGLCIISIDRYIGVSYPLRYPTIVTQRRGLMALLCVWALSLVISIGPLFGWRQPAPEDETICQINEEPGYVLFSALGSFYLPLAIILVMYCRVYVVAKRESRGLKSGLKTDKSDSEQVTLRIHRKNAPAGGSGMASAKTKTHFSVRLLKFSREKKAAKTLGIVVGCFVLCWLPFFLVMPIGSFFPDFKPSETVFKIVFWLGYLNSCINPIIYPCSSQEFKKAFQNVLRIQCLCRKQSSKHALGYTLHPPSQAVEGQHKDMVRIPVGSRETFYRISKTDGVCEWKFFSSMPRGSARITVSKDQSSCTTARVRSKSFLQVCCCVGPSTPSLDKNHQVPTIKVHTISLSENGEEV

[2] = dogs; immediate release cariprazine capsules
[3] = system: cholinergic muscarinic receptors
[4] = rats; immediate release cariprazine capsules
[5] = target: 5-HT2A receptors (Homo sapiens, UniProt P28223); settings: antagonist
[6] = target: T2, serotonin 5-HT2C receptors (Homo sapiens, UniProt P28335)
T2 sequence (P28335 33-458): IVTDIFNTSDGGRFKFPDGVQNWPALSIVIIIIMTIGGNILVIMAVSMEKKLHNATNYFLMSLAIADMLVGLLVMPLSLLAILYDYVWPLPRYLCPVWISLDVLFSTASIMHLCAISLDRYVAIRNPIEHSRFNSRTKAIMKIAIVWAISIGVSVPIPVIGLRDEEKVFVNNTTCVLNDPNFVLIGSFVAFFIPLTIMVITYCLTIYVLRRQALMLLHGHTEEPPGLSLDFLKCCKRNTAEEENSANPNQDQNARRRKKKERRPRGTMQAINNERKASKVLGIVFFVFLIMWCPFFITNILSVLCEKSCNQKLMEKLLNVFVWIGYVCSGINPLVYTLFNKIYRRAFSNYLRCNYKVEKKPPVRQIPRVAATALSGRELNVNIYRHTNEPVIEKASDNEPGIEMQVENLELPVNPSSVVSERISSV

[7] = target: 5-HT2B receptors (Homo sapiens, UniProt P41595); settings: antagonist
5-HT2B receptors, sequence (P41595 whole entry): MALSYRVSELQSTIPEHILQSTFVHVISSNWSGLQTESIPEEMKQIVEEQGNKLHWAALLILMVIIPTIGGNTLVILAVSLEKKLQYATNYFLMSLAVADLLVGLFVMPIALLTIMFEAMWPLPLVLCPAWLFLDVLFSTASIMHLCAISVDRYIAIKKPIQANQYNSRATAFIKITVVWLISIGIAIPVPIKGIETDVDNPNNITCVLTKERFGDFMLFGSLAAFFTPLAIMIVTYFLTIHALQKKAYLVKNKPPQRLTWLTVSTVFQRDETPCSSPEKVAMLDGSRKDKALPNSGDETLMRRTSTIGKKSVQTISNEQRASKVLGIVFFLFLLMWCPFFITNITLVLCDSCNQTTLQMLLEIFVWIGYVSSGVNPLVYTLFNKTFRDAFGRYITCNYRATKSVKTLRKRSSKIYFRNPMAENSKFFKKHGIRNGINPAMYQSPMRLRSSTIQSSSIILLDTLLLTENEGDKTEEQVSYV

5-HT2A receptors, sequence (P28223 whole entry): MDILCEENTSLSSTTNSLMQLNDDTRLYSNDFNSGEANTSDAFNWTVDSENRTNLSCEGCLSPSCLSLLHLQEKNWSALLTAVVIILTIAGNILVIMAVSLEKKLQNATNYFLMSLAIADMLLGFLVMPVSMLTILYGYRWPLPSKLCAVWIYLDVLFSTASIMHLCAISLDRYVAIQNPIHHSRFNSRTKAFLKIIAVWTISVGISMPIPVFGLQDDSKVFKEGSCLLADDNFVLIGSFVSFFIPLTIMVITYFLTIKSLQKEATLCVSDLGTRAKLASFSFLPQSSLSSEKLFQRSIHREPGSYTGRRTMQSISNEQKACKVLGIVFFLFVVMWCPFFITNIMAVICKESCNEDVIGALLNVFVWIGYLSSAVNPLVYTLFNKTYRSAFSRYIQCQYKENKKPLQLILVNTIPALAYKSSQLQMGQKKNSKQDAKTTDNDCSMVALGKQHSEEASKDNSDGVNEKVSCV

CN(C)C(=O)N[C@H]1CC[C@H](CCN2CCN(c3cccc(Cl)c3Cl)CC2)CC1 [Cariprazine, trans-N-{4-[2-[4-(2,3-dichlorophenyl)piperazine-1-yl]ethyl]cyclohexyl}-N′,N′-dimethylurea]
binding affinity [1]: lower binding affinity | oral absolute bioavailability [2]: 64-80% | affinity [3]: no appreciable affinity | oral absolute bioavailability [4]: 52-63% | binding affinity [5]: moderate | binding affinity [6]: lower binding affinity | binding affinity [7]: high
